From ChEMBL document CHEMBL1201862, “PubChem BioAssay data set” (2004)
Calls of active or inactive are those of the source.

Columns and labels:
[1] = molecular target: T1, Sentrin-specific protease 8 (Homo sapiens, UniProt Q96LD8); type: functional;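 also: luminescence read-out of SENP8 inhibition, dose-response confirmation following an ultra-high-throughput screen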
T1 sequence (Q96LD8 whole entry): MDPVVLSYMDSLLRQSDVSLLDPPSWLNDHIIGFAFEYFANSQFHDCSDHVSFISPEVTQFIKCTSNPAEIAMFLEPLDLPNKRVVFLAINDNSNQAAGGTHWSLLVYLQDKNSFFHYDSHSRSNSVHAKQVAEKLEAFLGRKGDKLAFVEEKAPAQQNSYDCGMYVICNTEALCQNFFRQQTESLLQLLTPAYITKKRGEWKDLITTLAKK

[2] = tested on: Streptococcus; assay: GAS UMAA2166 growth inhibition – luminescence, BacTiterGlo, counter-screen for streptokinase expression inhibitor project, dose response (AID 1915); type: functional, organism-based;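 also: potency for reduction of bacterial viability or growth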
[3] = molecular target: T2, Protein RecA (Mycobacterium tuberculosis, UniProt P9WHJ3); assay: Fluorescence Cell-Free Homogeneous Dose Retest to Identify Inhibitors of RecA-Intein Splicing Activity. [Related pubchem assays (depositor defined):AID2097, AID2223, AID489010, AID492950]; type: functional
T2 sequence (P9WHJ3 whole entry): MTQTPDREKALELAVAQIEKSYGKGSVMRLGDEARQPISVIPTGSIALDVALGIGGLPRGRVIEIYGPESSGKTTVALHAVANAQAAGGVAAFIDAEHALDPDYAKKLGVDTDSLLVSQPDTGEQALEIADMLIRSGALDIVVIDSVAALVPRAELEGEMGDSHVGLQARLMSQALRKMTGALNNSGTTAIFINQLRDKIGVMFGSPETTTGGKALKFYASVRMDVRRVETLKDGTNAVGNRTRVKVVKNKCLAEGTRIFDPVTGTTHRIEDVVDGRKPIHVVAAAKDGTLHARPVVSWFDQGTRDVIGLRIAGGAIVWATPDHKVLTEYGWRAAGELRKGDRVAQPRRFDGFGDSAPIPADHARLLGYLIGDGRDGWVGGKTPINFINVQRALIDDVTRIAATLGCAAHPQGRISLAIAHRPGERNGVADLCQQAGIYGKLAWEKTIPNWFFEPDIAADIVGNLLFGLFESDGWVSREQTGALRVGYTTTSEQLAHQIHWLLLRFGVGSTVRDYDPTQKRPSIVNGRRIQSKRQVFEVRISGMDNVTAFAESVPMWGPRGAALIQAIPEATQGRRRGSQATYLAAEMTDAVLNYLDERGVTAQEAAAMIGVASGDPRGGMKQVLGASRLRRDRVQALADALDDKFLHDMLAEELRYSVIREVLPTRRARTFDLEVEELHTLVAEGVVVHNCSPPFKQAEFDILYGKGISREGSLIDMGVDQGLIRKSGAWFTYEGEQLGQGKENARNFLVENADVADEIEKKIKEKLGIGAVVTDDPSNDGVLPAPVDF

[4] = molecular target: T3, Tyrosine-protein kinase receptor TYRO3 (Homo sapiens, UniProt Q06418); type: functional;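 also: TYRO3 value obtained as one member of a kinome-wide profiling panel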
T3 sequence (Q06418 whole entry): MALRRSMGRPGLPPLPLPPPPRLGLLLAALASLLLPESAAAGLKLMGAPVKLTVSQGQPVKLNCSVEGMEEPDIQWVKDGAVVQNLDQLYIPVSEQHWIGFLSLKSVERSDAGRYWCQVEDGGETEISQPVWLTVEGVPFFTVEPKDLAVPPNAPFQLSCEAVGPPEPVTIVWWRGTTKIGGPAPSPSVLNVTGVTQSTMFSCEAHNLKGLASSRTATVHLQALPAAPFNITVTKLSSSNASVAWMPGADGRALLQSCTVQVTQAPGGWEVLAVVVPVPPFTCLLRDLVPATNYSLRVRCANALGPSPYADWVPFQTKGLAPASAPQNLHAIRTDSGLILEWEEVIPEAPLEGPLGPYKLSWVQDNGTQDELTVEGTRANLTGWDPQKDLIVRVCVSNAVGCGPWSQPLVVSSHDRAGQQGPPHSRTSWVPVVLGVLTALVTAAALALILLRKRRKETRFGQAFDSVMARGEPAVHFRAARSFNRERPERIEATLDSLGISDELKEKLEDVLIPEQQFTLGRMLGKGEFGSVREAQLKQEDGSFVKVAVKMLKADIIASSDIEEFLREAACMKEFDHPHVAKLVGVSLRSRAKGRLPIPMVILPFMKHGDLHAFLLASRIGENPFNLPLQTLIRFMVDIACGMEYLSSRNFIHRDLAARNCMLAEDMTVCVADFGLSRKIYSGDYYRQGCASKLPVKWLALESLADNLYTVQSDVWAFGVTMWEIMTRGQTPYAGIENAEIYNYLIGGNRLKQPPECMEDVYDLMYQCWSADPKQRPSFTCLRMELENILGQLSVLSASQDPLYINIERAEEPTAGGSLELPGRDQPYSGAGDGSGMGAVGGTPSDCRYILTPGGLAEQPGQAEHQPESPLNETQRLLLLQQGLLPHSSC

[5] = molecular target: Cyclin-dependent kinase 5 (Homo sapiens, UniProt Q00535); type: functional;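 also: CDK5 measured as one member of a kinase profiling panel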
Sequence of Cyclin-dependent kinase 5 (Q00535 whole entry): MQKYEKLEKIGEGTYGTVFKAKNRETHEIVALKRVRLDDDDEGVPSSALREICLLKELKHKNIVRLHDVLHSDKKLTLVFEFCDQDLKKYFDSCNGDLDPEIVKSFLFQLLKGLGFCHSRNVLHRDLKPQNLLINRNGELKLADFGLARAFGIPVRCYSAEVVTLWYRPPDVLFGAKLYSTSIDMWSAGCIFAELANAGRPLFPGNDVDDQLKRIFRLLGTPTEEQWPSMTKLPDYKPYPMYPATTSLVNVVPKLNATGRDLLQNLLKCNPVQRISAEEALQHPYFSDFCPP

[6] = molecular target: Platelet-derived growth factor receptor alpha (Homo sapiens, UniProt P16234); assay: Navigating the Kinome. Panel member name: PDGFRA; type: functional
Sequence of Platelet-derived growth factor receptor alpha (P16234 whole entry): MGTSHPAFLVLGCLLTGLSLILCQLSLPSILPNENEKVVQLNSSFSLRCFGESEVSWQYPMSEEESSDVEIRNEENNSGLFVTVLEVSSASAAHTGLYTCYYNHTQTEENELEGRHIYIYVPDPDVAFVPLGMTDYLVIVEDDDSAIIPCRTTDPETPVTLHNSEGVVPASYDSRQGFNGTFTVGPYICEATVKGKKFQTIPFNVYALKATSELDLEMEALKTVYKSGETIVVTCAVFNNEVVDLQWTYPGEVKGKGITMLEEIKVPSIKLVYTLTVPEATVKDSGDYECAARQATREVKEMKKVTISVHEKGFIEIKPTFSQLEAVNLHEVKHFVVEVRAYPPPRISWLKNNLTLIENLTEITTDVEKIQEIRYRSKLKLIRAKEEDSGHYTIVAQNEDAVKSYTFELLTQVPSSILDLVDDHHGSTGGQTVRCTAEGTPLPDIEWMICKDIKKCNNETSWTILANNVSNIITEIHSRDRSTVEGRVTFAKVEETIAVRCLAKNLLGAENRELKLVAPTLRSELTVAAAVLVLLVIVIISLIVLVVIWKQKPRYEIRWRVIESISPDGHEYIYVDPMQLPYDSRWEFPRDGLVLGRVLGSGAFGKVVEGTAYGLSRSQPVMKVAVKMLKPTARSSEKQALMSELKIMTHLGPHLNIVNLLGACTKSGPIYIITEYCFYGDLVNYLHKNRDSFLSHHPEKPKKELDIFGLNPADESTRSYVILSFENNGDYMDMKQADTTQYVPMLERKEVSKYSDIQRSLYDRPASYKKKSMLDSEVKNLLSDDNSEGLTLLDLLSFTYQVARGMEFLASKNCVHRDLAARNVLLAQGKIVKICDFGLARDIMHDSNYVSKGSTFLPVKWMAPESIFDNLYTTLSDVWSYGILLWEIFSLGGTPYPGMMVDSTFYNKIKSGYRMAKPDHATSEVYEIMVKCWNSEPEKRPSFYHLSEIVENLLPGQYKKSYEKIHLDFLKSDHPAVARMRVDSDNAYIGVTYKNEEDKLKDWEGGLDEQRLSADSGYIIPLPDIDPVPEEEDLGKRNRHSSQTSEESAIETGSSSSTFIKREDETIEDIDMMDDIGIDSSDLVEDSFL

[7] = molecular target: Aurora kinase B (Homo sapiens, UniProt Q96GD4); type: functional
Sequence of Aurora kinase B (Q96GD4 whole entry): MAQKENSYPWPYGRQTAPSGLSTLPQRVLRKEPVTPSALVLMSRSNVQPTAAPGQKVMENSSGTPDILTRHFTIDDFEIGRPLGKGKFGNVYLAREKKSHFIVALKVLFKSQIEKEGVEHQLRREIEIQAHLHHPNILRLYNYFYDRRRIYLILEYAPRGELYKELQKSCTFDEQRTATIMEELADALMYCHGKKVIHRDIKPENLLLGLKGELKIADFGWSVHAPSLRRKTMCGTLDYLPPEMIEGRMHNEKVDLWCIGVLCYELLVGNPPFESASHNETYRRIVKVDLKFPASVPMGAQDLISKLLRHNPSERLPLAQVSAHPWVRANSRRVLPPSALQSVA

[8] = molecular target: Mitogen-activated protein kinase kinase kinase kinase 4 (Homo sapiens, UniProt O95819); type: functional
Sequence of Mitogen-activated protein kinase kinase kinase kinase 4 (O95819 whole entry): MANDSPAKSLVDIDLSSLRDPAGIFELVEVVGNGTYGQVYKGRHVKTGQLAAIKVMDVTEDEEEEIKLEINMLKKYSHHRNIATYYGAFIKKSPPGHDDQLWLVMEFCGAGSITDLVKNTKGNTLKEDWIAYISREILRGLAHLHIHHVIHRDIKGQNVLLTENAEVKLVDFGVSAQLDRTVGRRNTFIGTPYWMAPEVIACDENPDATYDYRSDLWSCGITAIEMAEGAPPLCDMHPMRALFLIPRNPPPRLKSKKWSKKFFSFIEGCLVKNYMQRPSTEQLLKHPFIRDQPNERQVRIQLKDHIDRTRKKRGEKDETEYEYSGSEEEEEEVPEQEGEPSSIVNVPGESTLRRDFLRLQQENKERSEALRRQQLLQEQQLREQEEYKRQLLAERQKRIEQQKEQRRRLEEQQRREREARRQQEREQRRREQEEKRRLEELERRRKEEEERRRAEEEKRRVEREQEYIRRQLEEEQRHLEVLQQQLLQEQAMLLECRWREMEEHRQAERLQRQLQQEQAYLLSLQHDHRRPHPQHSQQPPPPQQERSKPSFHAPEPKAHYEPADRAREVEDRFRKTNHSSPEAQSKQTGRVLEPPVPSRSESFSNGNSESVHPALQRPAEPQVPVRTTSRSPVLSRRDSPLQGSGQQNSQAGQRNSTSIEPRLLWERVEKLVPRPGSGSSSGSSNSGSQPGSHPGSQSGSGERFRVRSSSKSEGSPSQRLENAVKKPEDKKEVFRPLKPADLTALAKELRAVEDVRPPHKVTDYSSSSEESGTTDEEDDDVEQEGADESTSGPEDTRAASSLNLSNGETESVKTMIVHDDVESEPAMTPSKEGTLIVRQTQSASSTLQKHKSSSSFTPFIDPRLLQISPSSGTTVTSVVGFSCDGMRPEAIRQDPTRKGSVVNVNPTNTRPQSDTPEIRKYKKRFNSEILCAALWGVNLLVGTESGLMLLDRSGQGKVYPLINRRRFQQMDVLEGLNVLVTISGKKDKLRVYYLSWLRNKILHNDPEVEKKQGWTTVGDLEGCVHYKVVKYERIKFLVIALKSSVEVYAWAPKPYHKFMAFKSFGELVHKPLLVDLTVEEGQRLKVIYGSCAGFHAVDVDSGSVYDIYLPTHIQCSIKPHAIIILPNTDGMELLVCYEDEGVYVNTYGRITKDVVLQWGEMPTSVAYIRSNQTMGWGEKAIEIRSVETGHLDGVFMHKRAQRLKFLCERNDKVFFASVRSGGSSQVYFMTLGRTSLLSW

Structure (SMILES)	IC50 [1]	EC50 [2]	EC50 [3]	Ki [4]	Ki [5]	Ki [6]	Ki [7]	Ki [8]
CCCNC(=O)c1c(N)n(CC2CCCO2)c2nc3ccccc3nc12 (stereo not given)	3.35 µM (active)	–	–	–	–	–	–	–
O=C1/C(=C\c2cccc(O)c2O)SC(=S)N1Cc1ccccc1	–	6.24 µM (active)	1.95 µM (active)	–	–	–	–	–
CC(C)(C)c1cc[n+](C2=C([N-]S(=O)(=O)c3cccs3)C(=O)c3ccccc3C2=O)cc1	9.58 µM (active)	7.2 µM (active)	0.95 µM (active)	–	–	–	–	–
COc1c(-c2nc3ccccc3[nH]2)c(O)cc2oc(C)cc(=O)c12	–	–	–	0.316 µM (active)	0.794 µM (active)	0.631 µM (active)	0.794 µM (active)	5.01 µM (active)
COC(=O)c1c(N)nc2ccccn12	–	–	–	25.1 µM (active)	39.8 µM (active)	79.4 µM (active)	15.8 µM (active)	12.6 µM (active)
CCc1ccc(S(=O)(=O)/N=C2\C=C(Nc3ccc(O)cc3)C(=O)c3ccccc32)cc1	–	2.16 µM (active)	0.306 µM (active)	–	–	–	–	–
Cc1cc([N+](=O)[O-])cc(/C=N\NC(=O)C2COc3ccccc3O2)c1O (stereo not given)	42.1 µM (active)	2.79 µM (active)	–	–	–	–	–	–
Cc1ccc(F)c(NC(=O)Nc2ccc(-c3cccc4[nH]nc(N)c34)cc2)c1 [LINIFANIB]	–	–	–	> 3.16 µM (inactive)	> 3.16 µM (inactive)	0.0501 µM (active)	0.0794 µM (active)	> 5.01 µM (inactive)
